Experimental data from ChEMBL document CHEMBL1124518, “Nonsteroidal cardiotonics. 2. The inotropic activity of linear, tricyclic 5-6-5 fused heterocycles” (1989).

Columns and labels:
Rattus norvegicus [1] = species: Rattus norvegicus; assay: Effective dose required to produce an increase in dP/dt5 by 1500 mmHg/s in rats; format: functional
Felis catus [2] = assay: Maximum increase in dP/dt when administered intravenously in cats at 0.3 mg/kg dose.; format: functional; conditions: route intravenous
Felis catus [3] = species: Felis catus; assay: Effective dose required to produce an increase in dP/dt5 by 1500 mmHg/s in cats; format: functional
Rattus norvegicus [4] = assay: Maximum increase in dP/dt when administered intravenously in rats at 10 mg/kg dose.; format: functional; parameters: unit not given here; conditions: route intravenous
Canis familiaris [5] = assay: Time after which maximum increase in contractility was observed when administered orally in conscious dogs at 1 mg/kg; format: functional, Canis lupus familiaris; conditions: route oral
Canis familiaris [6] = assay: Amount of time during which increase in administered orally in conscious dogs at 0.3 mg/kg; format: functional, Canis lupus familiaris; conditions: route oral
Canis familiaris [7] = assay: Maximum increase in dP/dt60 when administered orally in dogs at dose 0.3 mg/kg; format: functional, Canis lupus familiaris; conditions: route oral
Felis catus [8] = assay: Maximum increase in dP/dt when administered intravenously in cats at 0.1 mg/kg dose.; format: functional; conditions: route intravenous
Rattus norvegicus [9] = assay: Maximum increase in dP/dt when administered intravenously in rats at 3 mg/kg.; format: functional; conditions: route intravenous
Canis familiaris [10] = assay: Amount of time during which increase in administered orally in conscious dogs at 1 mg/kg; format: functional, Canis lupus familiaris; conditions: route oral
Canis familiaris [11] = assay: Maximum increase in dP/dt when administered intravenously in dogs at 1 mg/kg dose.; format: functional, Canis lupus familiaris; conditions: route intravenous
Felis catus [12] = assay: Maximum increase in dP/dt when administered intravenously in cats at 3 mg/kg.; format: functional; conditions: route intravenous
Canis familiaris [13] = species: Canis familiaris; assay: Effective dose required to produce an increase in dP/dt5 by 1500 mmHg/s in dogs; format: functional, Canis lupus familiaris
Canis familiaris [14] = assay: Maximum increase in dP/dt when administered intravenously in dogs at 0.3 mg/kg dose.; format: functional, Canis lupus familiaris; conditions: route intravenous
Felis catus [15] = assay: Maximum increase in dP/dt when administered intravenously in cats at 3 mg/kg dose.; format: functional; conditions: route intravenous
Canis familiaris [16] = assay: Maximum increase in dP/dt60 when administered orally in dogs at dose 0.5 mg/kg; format: functional, Canis lupus familiaris; conditions: route oral
Canis familiaris [17] = assay: Time after which maximum increase in contractility was observed when administered orally in conscious dogs at 0.5 mg/kg; format: functional, Canis lupus familiaris; conditions: route oral
Rattus norvegicus [18] = assay: Maximum increase in dP/dt when administered intravenously in rats at 1 mg/kg dose.; format: functional; parameters: unit not given here; conditions: route intravenous
Canis familiaris [19] = assay: Amount of time during which increase in administered orally in conscious dogs at 0.5 mg/kg; format: functional, Canis lupus familiaris; conditions: route oral
Canis familiaris [20] = assay: Maximum increase in dP/dt when administered intravenously in dogs at 1 mg/kg.; format: functional, Canis lupus familiaris; conditions: route intravenous
Canis familiaris [21] = assay: Maximum increase in dP/dt60 when administered orally in dogs at dose 1 mg/kg; format: functional, Canis lupus familiaris; conditions: route oral
Rattus norvegicus [22] = assay: Maximum increase in dP/dt when administered intravenously in rats at 1 mg/kg.; format: functional; conditions: route intravenous

SMILES | ED1.5 (Rattus norvegicus [1]) | ED1.5 (Felis catus [3]) | Max (Rattus norvegicus [4]) | Time (Canis familiaris [5]) | Duration (Canis familiaris [10]) | ED1.5 (Canis familiaris [13]) | other results
CC1(C)C(=O)Nc2cc3[nH]c(-c4cnccn4)nc3cc21 | 0.1 mg/kg | 0.04 mg/kg | 2.6 |  |  |  | Max (Felis catus [2]): 2.7 mHg/s
CC1(C)C(=O)Nc2ccc(C3=NNC(=O)CC3)cc21 [INDOLIDAN] |  |  |  | 45 min |  |  | Duration (Canis familiaris [6]): > 6 h; Max (Canis familiaris [7]): 2.8 mmHg s-1
CCn1c(O)nc2cc3[nH]c(-c4ccncc4)nc3cc21 | 0.05 mg/kg | 0.007 mg/kg |  |  | 0 h |  | Max (Felis catus [8]): 3.1 mmHg s-1; Max (Rattus norvegicus [9]): 2.3 mmHg s-1
Cc1nc2cc3c(cc2[nH]1)C(C)(C)C(=O)N3 | 0.48 mg/kg | 0.17 mg/kg | 3.5 | 30 min | 3 h | 0.46 mg/kg | Max (Canis familiaris [11]): 2.2 mHg s-1; Max (Felis catus [12]): 2.8 mHg/s
CC1(C)C(=O)Nc2cc3[nH]c(O)nc3cc21 | 0.13 mg/kg | 0.08 mg/kg |  | 45 min | > 6 h | 0.12 mg/kg | Max (Canis familiaris [14]): 2 mHg/s; Max (Felis catus [15]): 2.9 mmHg s-1; Max (Canis familiaris [16]): 1.6 mHg s-1; Time (Canis familiaris [17]): 60 min; Max (Rattus norvegicus [18]): 3; Duration (Canis familiaris [19]): 6 h
Cn1c(O)nc2cc3[nH]c(-c4ccncc4)nc3cc21 | 0.33 mg/kg | 0.01 mg/kg | 2.6 |  | 0 h | 0.12 mg/kg | Max (Canis familiaris [20]): 2.9 mmHg s-1
CC(C)c1nc2cc3c(cc2[nH]1)C(C)(C)C(=O)N3 | 0.22 mg/kg | 0.09 mg/kg |  | 30 min | 3 h | 0.46 mg/kg | Max (Canis familiaris [11]): 1.9 mHg s-1; Max (Canis familiaris [21]): 2.2 mmHg s-1; Max (Rattus norvegicus [22]): 2.3 mmHg s-1
